Test system: antibodies to HIV-2
Experiment: Rapid EIA with latex-immobilized peptide reagents, HIV-2
Assay type: binding
Conditions: free peptide passively adsorbed onto carboxylate latex
Description: A 125 microliter volume of 10% latex was added to a 375 microliter volume of deionized water, and mixed with an equal volume (0.5ml) of 1M carbodiimide, pH 4.5. The mixture was shaken gently a room temperature for 1 hour, and then washed 3 times by centrifugation at 9,000 x g for 10 minutes, removal of supernate, and resuspension of the pellet in a 12-14 ml volume of deionized water, pH 4.5. The free peptides at 1 mg/ml concentration (500 micrograms/ml of each peptide 4S36 and 5S70), or the peptide-BSA conjugate of peptides 4S36 and 5S70 at 500 micrograms/ml were added to the final washed activated latex pellet (1 ml volume of peptide containing solution per 125 microliters original volume of latex). […] It was determined that this stock solution of latex coated with peptide-BSA conjugate could be diluted 1:10-1:30 with latex diluent buffer for use in the rapid EIA described below.
Serum specimens were diluted 1:8 for the rapid EIA in a serum diluent buffer consisting of 0.03M Tris, pH 8 containing 0.8% NaCl, 0.05% NaN₃, 0.05% Triton x-100 (trademark). […] The reaction was stopped after 3-4 minutes by adding a drop of 4N H₂SO₄, and the test device could be retained as a permanent record of positive (blue-purple color) or negative (white membrane) until the results were recorded. […]

**Q.** For ARLNSWGCAFRQVCHGC [2S25], which “discrimination of HIV-2+ from HIV-2- serum samples” value is on record?
**A.** The value was “capable of discriminating”.

Reference: EP0449955B1, “SYNTHETIC HIV-LIKE PEPTIDES, THEIR COMPOSITIONS AND USES” (CLARITY TECHNOLOGIES INCORPORATED, priority 1988, dated 1996)
